Assay results published in US20070082903A1, “Remedy for rheumatoid arthritis” (priority 2003, published 2007).

How the values were obtained:
[1] = tolerance test by a single administration, healthy person Japanese; type: in vivo, human; conditions: single dose 10, 20, 40, 80 or 120 mg, tablets, hungry, healthy male Japanese
Method: • (1) A single-administration test on healthy male Japanese (20 to 40 years old, body weight: less than 80 kg and not less than 50 kg, degree of corpulence: ±20% or less) was carried out. Using the SMP-114 tablets and a placebo as control, 10, 20, 40, 80 or 120 mg of SMP-114 was administered by a single-blind method when the subjects were hungry (at each dose, 6 cases of SMP-114 administration and 2 cases of placebo administration: 40 subjects in total). As to items of evaluation related to safety, observations about the following were carried out: vital signs (body temperature, blood pressure-pulse rate and respiration rate), 12-induction electrocardiogram, clinical examinations [hematological examination, blood biochemical examination, endocrinological examinations (FT4, FT3 and TSH), serological examination (haptoglobin) and urinalysis], and harmful matters. As items of evaluation related to pharmacokinetics, the concentrations of SMP-114 and its metabolites in serum and urine were measured. […]

[2] = repeated administration test on healthy male Caucasians (7 days), serum concentration by LC-MS/MS; type: in vivo, human; conditions: for AUC(0-t): serum, oral, read-out: AUC0-24 at the steady state
Method: A repeated administration test on healthy male Caucasians of 18 to 50 years old was carried out. Using the SMP-114 tablets and placebo tablets, 80 mg or 120 mg of each of the placebo and SMP-114 was orally administered once a day for 7 days by a placebo controlled double-blind method (at each dose, 8 cases of SMP-114 administration and 2 cases of placebo administration: 20 subjects in total).
The SMP-114 concentration in serum was measured by a LC-MS/MS method by employing the following pretreatment and measuring conditions.
1) To each of the standard sample solutions for calibration curve, the QC sample and the samples to be analyzed was added 10 mL of an internal standard solution (d5-SMP-114 5 ng/mL), and stirred.
2) To the resulting mixture were added 1 mL of 100 mmol/L ammonium acetate buffer (pH 4.0) and then 6 mL of diethyl ether, and stirred for 10 minutes, followed by centrifugation at 4° C. and 3000 rpm for 10 minutes.
3) The supernatant was transferred to a glass tube and concentrated to dryness in a nitrogen stream (40° C.) in an aluminum-blocked thermostatic chamber.
4) To the residue was added 120 μL of 50 vol % acetonitrile and the residue was redissolved with an ultrasonic bath and a Vortex mixer.
5) The solution obtained by the redissolution was transferred to a filter and centrifuged at 5000 rpm for 3 minutes.
6) The filtrate was transferred to an auto-sampler vial to obtain a sample solution for measurement.
LC-MS/MS measurement was carried out under the following conditions. However, parameters (e.g. gas volume and collision voltage) whose optimum values were variable depending on the condition of a mass spectrometer were properly changed.
Mobile phase: eluent A; 0.3 vol % acetic acid eluent B; acetonitrile
• Flow rate: 0.2 ml/min • Analytical column: Puresil C18, 2.1 mm i.d.×150 mm, […] (Waters) • Auto-sampler tray: 4° C. • Column temperature: 35° C. • Valve switching: 0-1.5 min. discard, 1.5-9.0 min. ion source for SMP-114, 9.0-15.0 min. discard • Injecting volume: […] MS/MS Conditions • Ionization method: electro-ion spray method, positive mode • MS/MS mode: SRM (selected reaction monitoring) • Monitor ion: SMP-114 Q1 m/z 395.1→Q3 m/z 199.0 (±25 eV) d5-SMP-114 Q1 m/z 400.2→Q3 m/z 204.0 (−25 eV) • Total scan time: 0.6 second (SMP-114 and d5-SMP-114) • Ionization voltage: 4.5 kV for SMP-114 • Sheath gas: 70 psi (nitrogen gas) • Auxiliary gas: 30 units (nitrogen gas) • Capillary tube temperature: 230° C. • Collision gas: 2.1-2.2 mT (argon) • Multiplier: 1300 V

[3] = repeated oral administration toxicity test, SMP-114 concentration in serum (HPLC-fluorescence); type: in vivo; conditions: both sexes, Crj:CD(SD), rat, rats
Method: Next, a repeated oral administration toxicity test on Crj:CD(SD) rats aged 5 weeks was carried out for each of one month and six months (once-a-day oral administration in both cases). SMP-114 was repeatedly administered to male and female SD strain rats (10 rats per group) for one month in a dose of each of 10, 30, 100 and 300 mg/kg, and its subacute toxicity and the recovery by one month of the suspension of the administration were investigated. In addition, the time-course of SMP-114 concentration in serum after each of one run of the administration and 30 days of the repeated administration was investigated. […] In addition, the time-course of SMP-114 concentration in serum after each of one run of the administration, 3 months of the repeated administration and 6 months of the repeated administration was investigated. The SMP-114 concentration in serum was measured by an HPLC-fluorescence method (fluorescence wavelength: 319 nm) after extracting SMP-114 from each sample with diethyl ether under slight acidic conditions (pH 4.7).

[4] = tolerance test by a single administration, healthy male Caucasians; type: in vivo, human; conditions: single oral dose 10, 20, 40, 60, 80, 100, 120 or 140 mg, suspension, fasted
[5] = tested on: mice with collagen arthritis; assay: antiarthritic effect in mice with collagen arthritis; type: in vivo; conditions: considered on the basis of the rat adjuvant arthritis and mouse collagen arthritis results
Method: On the other hand, it is known that 3-[(1S)-1-(2-fluorobiphenyl-4-yl)ethyl]-5-{[amino(morpholin-4-yl)methylene]amino}isoxazole (hereinafter referred to also as “compound (I)” or “SMP-114”) is useful as, for example, an excellent medicament for treating autoimmune diseases, inflammatory diseases and the like.
It was 5 mg/kg (once-a-day oral administration) in the case of mice with collagen arthritis (F. Nishikaku, “Annals of the Rheumatic Diseases”, vol. 61 supplement 1, p. 194 (2002)).

With C[C@@H](c1ccc(-c2ccccc2)c(F)c1)c1cc(/N=C(/N)N2CCOCC2)on1 [SMP-114, 3-[(1S)-1-(2-fluorobiphenyl-4-yl)ethyl]-5-{[amino(morpholin-4-yl)methylene]amino}isoxazole] the “side effects undesirable with respect to tolerance” value (from here on “side effects undesirable”) [1] was “observed at none of the doses”, the “side effects undesirable” value ([2]; 80 mg or 120 mg oral once a day for 7 days, healthy male Caucasians) was “observed at neither of the doses” and the AUC(0-t) ([2]; human, 80 mg treated group, once a day for 7 days, healthy male Caucasians) was 10.6 µg·h/mL. The AUC(0-t) ([2]; human, 120 mg treated group, once a day for 7 days, healthy male Caucasians) was 16.7 µg·h/mL, the accumulative property ([2]; once a day for 7 days, healthy male Caucasians) was “no accumulative property” and the tolerance ([2]; repeated once-a-day dose of about 120 mg or less, human) was “satisfactory”. It also gave an AUC(0-t) ([3]; oral, calculated for a dose of 5 mg/kg, read-out: AUC0-24 for the exhibition of efficacy) of 2.71 to 3.58 µg·h/mL, an AUC(0-t) ([3]; 6 mg/kg oral once a day for 6 months, read-out: AUC0-24) of 3.25 µg·h/mL and an AUC(0-t) ([3]; 10 mg/kg oral once a day for one month, read-out: AUC0-24) of 7.16 µg·h/mL. The “side effects undesirable” value [4] was “observed at none of the doses” and the “dose at which SMP-114 exhibits its efficacy” value [5] was no less than 5 mg/kg.
